# Test system: Javanese medaka (Oryzias javanicus) livers
# Type: in vivo
# Details: 76 μg/L, 48 hr, liver
# Procedure: Javanese medaka was cultured in natural seawater filtered through three types of filters (10, 10 and 1 μm). Water temperature was fixed at 25° C. with underwater heater, and Artemia salina nauplii were fed once a day.
# To 3 L beaker with 2 L filtered seawater therein, 10 male Javanese medaka bred in culture water tank were transported each time, and acclimated for 24 hr. […] Additionally, five Javanese medaka of Example <1-1> were exposed to BPA (76 μg/L) for 48 hr. […] The Javanese medaka was transported to ice water, one at a time, which momentarily stunned it, followed by beheading and evisceration and liver removal.
# To the Javanese medaka livers of BPA exposed group (48 hr) produced from Example <1-2>, and of control group without exposure, 1 ml of TRI Reagent solution (Molecular Research Center Inc, Cincinnati, Ohio, USA) was added, homogenized with glass homogenizer, and left at room temperature for 5 min. Next, chloroform (200 μl) was added and mixed, left at room temperature for 10 min. After centrifugation for 15 min (12,000×g, 4° C.), supernatant was obtained, to which isopropanol (500 μl) was added and left at room temperature for 5 min. After centrifugation for about 20 min (12,000×g, 4° C.), solution was removed, thus leaving precipitate. To the precipitate, 70% ethanol solution (50 μl) was added and after centrifugation for 5 min, ethanol solution was removed, and the precipitate RNA was dried. After drying, the product was dissolved in appropriate amount of DEPC (diethylpyrocarbonate)-treated water.
# The entire RNA of the distilled exposed group and non-exposed group were labeled with Cy3 and Cy5 as follows, using Agilent's Low RNA Input Linear Amplification Kit Plus (Agilent Technologies, USA). To be specific, RNA (1 μg) was mixed with dT-promoter primer and MMLV-Reverse transcriptase. After reverse transcription at 40° C. for 2 hr, T7 polymerase was added, and linear amplification was done at 40° C. for 2 hr. After the amplification process explained above, the samples of experimental and control groups were labeled with Cy3-CTP and Cy5-CTP, respectively.
# Fluorescent-labeled cDNA sample was purified with Qiagen PCR purification kit, and eluted with distilled water. The purified, fluorescent-labeled cDNA sample was added to hybridization buffer (3×SSC, 0.3% SDS, 50% formamide, 20 μg Cot-1 DNA, 20 μg yeast tRNA), and concentrated with microcon YM-30. After hybridization, the hybridized compound was heated at 95° C. for 3 min for denaturization, and the temperature of the heated, hybridized compound was decreased by centrifugation for 30 sec at 12,000 g. The produced Javanese medaka cDNA microarray was covered with coverslip, and the denaturized, hybridized compound was pipetted. The microarray was put into GT-Hyb chamber for reaction to occur at 65° C. for 16 hr. After hybridization, the microarray was taken out of the chamber, underwent cleansing process as explained below, rotated and dried, and stored in a dark room until scanning. The Javanese medaka microarray was then scanned with Axon GenePix 4000B scanner (Axon Instrument, USA). On the GenePix Pro 6.0 program, dots from the scanned image were gridded using gridding file, and quantified to produce GPR file including analysis on cy5/Cy3 magnitudes and ratios.
# Based on the GPR file obtained with the GenePix Pro Program, the following analysis was made using analysis program, i.e., GeneSpring 7.3.1 (Agilent Technologies, USA). Normalization: by LOWESS (locally weighted regression scatterplot smoothing). Reliable gene): significant genes were obtained by flagging out dots whose sums of medial values were less than the background, or dots whose standard deviations of pixel values are not significant. Significant genes: dots whose normalized ratio is at […] higher interval, were screened. […]
# [1] = Down-regulation, + = increased expression level
# [2] = Up-regulation, − = decreased expression level
structure (smiles),measurement,setting,value
"CC(C)(c1ccc(O)cc1)c1ccc(O)cc1 [BPA, Bisphenol A]","Fold difference, 40S ribosomal protein S19 (No. 115)",[1],+2.00 fold
same,"Fold difference, ATP citrate lyase (ACLY), transcript variant 2 (No. 154)",[1],+2.84 fold
same,"Fold difference, ATP-binding cassette transporter sub-family G member 2b (No. 146)",[1],+2.59 fold
same,"Fold difference, GTP cyclohydrolase 1 precursor (No. 148)",[1],+2.60 fold
same,"Fold difference, Iron-responsive element-binding protein 1 (No. 141)",[1],+2.25 fold
same,"Fold difference, Isocitrate dehydrogenase (No. 153)",[1],+2.72 fold
same,"Fold difference, NADH dehydrogenase subunit 4 (No. 126)",[1],+2.08 fold
same,"Fold difference, Nedd4 family interacting protein 2 (No. 132)",[1],+2.13 fold
same,"Fold difference, Restin (Cytoplasmic linker protein-170 alpha-2) (No. 133)",[1],+2.14 fold
same,"Fold difference, Ribosomal protein S14, transcript variant 4 (No. 158)",[1],+3.11 fold
same,"Fold difference, TBT-binding protein (No. 120)",[1],+2.02 fold
same,"Fold difference, Thyroid hormone receptor-associated protein complex 150 kDa component (No. 149)",[1],+2.62 fold
same,"Fold difference, Transforming growth factor-beta-induced protein ig-h3 (No. 114)",[1],+2.00 fold
same,"Fold difference, Translation initiation factor eIF-2B subunit epsilon (No. 157)",[1],+3.00 fold
same,"Fold difference, Transmembrane protein 85 (No. 159)",[1],+5.22 fold
same,"Fold difference, adult alpha-type globin (No. 147)",[1],+2.59 fold
same,"Fold difference, alcohol dehydrogenase Class VI (ADH8) (No. 116)",[1],+2.01 fold
same,"Fold difference, alpha-2-macroglobulin (No. 119)",[1],+2.01 fold
same,"Fold difference, alpha-2-macroglobulin-2 (No. 123)",[1],+2.03 fold
same,"Fold difference, apolipoprotein A-IV4 (No. 156)",[1],+2.94 fold
same,"Fold difference, arginyl-tRNA synthetase (No. 145)",[1],+2.52 fold
same,"Fold difference, calreticulin (No. 142)",[1],+2.25 fold
same,"Fold difference, carboxyl ester lipase, tandem duplicate 2 (No. 118)",[1],+2.01 fold
same,"Fold difference, catalase (No. 135)",[1],+2.16 fold
same,"Fold difference, choriogenin L (No. 130)",[1],+2.12 fold
same,"Fold difference, chymotrypsinogen 2-like protein (No. 140)",[1],+2.22 fold
same,"Fold difference, complement component C9 (No. 122)",[1],+2.03 fold
same,"Fold difference, complement factor B/C2-B (No. 131)",[1],+2.12 fold
same,"Fold difference, complement regulatory plasma protein (No. 128)",[1],+2.11 fold
same,"Fold difference, cyclin B2 (No. 152)",[1],+2.66 fold
same,"Fold difference, cyclin Y-like 1 (No. 127)",[1],+2.09 fold
same,"Fold difference, decorin mRNA (No. 155)",[1],+2.87 fold
same,"Fold difference, delta 6-desaturase (No. 143)",[1],+2.39 fold
same,"Fold difference, glutathione S transferase Rho-class (No. 162)",[1],+6.90 fold
same,"Fold difference, heat shock protein 84b (No. 160)",[1],+5.53 fold
same,"Fold difference, hepcidin-like precursor (No. 125)",[1],+2.07 fold
same,"Fold difference, hypoxanthine phosphoribosyltransferase 1 (No. 138)",[1],+2.17 fold
same,"Fold difference, kelch domain containing 10 (No. 144)",[1],+2.42 fold
same,"Fold difference, kelch-like ECH-associated protein 1b (No. 124)",[1],+2.06 fold
same,"Fold difference, keratin 15 (No. 121)",[1],+2.02 fold
same,"Fold difference, malate dehydrogenase (No. 117)",[1],+2.01 fold
same,"Fold difference, ornithine decarboxylase antizyme large isoform ORF1 (No. 134)",[1],+2.15 fold
same,"Fold difference, protein kinase C and casein kinase substrate in neurons 2 (No. 129)",[1],+2.12 fold
same,"Fold difference, protein phosphatase 2A regulatory subunit B′ delta isoform (No. 151)",[1],+2.63 fold
same,"Fold difference, ring finger protein 141 (No. 136)",[1],+2.16 fold
same,"Fold difference, sex hormone-binding globulin (No. 150)",[1],+2.62 fold
same,"Fold difference, warm-temperature-acclimation-related-65 kDa-protein (C79) (No. 161)",[1],+5.88 fold
same,"Fold difference, 5,10-methylenetetrahydrofolate reductase (NADPH)-like mRNA (No. 106)",[2],−2.06 fold
same,"Fold difference, 40S ribosomal protein S18 (No. 89)",[2],−2.43 fold
same,"Fold difference, 60S acidic ribosomal protein P1 (No. 100)",[2],−2.13 fold
same,"Fold difference, ATPase, H+ transporting, lysosomal, V1 subunit E isoform 1 (No. 109)",[2],−2.04 fold
same,"Fold difference, DEAD-box RNA-dependent helicase p68 mRNA (No. 113)",[2],−2.01 fold
same,"Fold difference, Glycerol-3-phosphate dehydrogenase (No. 80)",[2],−3.03 fold
same,"Fold difference, HSPC038 protein (No. 79)",[2],−3.05 fold
same,"Fold difference, MHC Class I Region (No. 74)",[2],−3.70 fold
same,"Fold difference, Putative transmembrane 4 superfamily member protein (No. 111)",[2],−2.02 fold
same,"Fold difference, TRAF-binding protein (No. 78)",[2],−3.17 fold
same,"Fold difference, Transcription initiation factor IIA gamma chain (No. 108)",[2],−2.06 fold
same,"Fold difference, Uridine phosphorylase 1 (No. 99)",[2],−2.16 fold
same,"Fold difference, bromodomain containing 2 (RING3) gene (No. 92)",[2],−2.35 fold
same,"Fold difference, c-type lysozyme mRNA (No. 98)",[2],−2.18 fold
same,"Fold difference, carnitine O-acetyltransferase precursor (No. 83)",[2],−2.78 fold
same,"Fold difference, cathepsin F (No. 105)",[2],−2.08 fold
same,"Fold difference, choriogenin Hminor (No. 102)",[2],−2.09 fold
same,"Fold difference, cyclin G2 (No. 95)",[2],−2.27 fold
same,"Fold difference, cysteine dioxygenase (No. 94)",[2],−2.32 fold
same,"Fold difference, estrogen receptor beta 2 (No. 91)",[2],−2.37 fold
same,"Fold difference, eukaryotic peptide chain release factor GTP-binding subunit (No. 88)",[2],−2.45 fold
same,"Fold difference, glucose-regulated protein 94 (No. 104)",[2],−2.09 fold
same,"Fold difference, glutathione S-transferase (No. 93)",[2],−2.33 fold
same,"Fold difference, heart-type fatty acid-binding protein (No. 101)",[2],−2.12 fold
same,"Fold difference, leukocyte elastase inhibitor (No. 110)",[2],−2.04 fold
same,"Fold difference, mitogen-activated protein kinase 1 (No. 107)",[2],−2.06 fold
same,"Fold difference, mitogen-activated protein kinase (p38) (No. 112)",[2],−2.02 fold
same,"Fold difference, muscleblind mRNA (No. 85)",[2],−2.53 fold
same,"Fold difference, phosphoenolpyruvate carboxykinase (No. 86)",[2],−2.51 fold
same,"Fold difference, proline rich 6 (No. 71)",[2],−5.99 fold
same,"Fold difference, proteasome subunit, beta type 8 (No. 81)",[2],−2.96 fold
same,"Fold difference, protein kinase C and casein kinase substrate in neurons 1 (No. 96)",[2],−2.22 fold
same,"Fold difference, protein phosphatase 2 regulatory subunit B beta (No. 87)",[2],−2.50 fold
same,"Fold difference, protein tyrosine phosphatase-like, member b (No. 77)",[2],−3.23 fold
same,"Fold difference, retinoid X receptor beta (RXRB) gene (No. 76)",[2],−3.42 fold
same,"Fold difference, ribosomal protein L13 (No. 103)",[2],−2.09 fold
same,"Fold difference, septin 7b (sept7b), transcript variant 1 (No. 97)",[2],−2.20 fold
same,"Fold difference, telomerase reverse transcriptase gene (No. 72)",[2],−4.31 fold
same,"Fold difference, trypsinogen (No. 82)",[2],−2.88 fold
same,"Fold difference, trypsinogen (No. 90)",[2],−2.42 fold
same,"Fold difference, tubulin, beta 5 (No. 84)",[2],−2.56 fold
same,"Fold difference, uridine phosphorylase 2 (No. 73)",[2],−3.77 fold
same,"Fold difference, vitellogenin II (No. 75)",[2],−3.69 fold

# Reference: patent US20140315738A1, “MARINE MEDAKA GENES RESPONDING TO THE EXPOSURE OF ENDOCRINE-DISRUPTING CHEMICALS, AND METHOD FOR DIAGNOSING AN AQUATIC ECO-SYSTEM CONTAMINATION USING SAME” (priority 2011, published 2014)
